Laboratory results from patent publication US20150148759A1, “Pharmaceutical Patch for Transdermal Administration of Tapentadol” (Gruenenthal GmbH, priority 2012, published 2015).
≈ marks a conversion by molar mass, not a printed value. Where “and” joins values, the source holds several entries; their conditions need not be identical. Equal values may be shown once. Where a name gives a salt, the structure may show the parent alone. Read-outs that look alike come from different tables or passages of the source.

Columns and labels:
[1] = system: hairless mouse skin; experiment: in-vitro skin permeation from donor solution, Franz-diffusion cell; type: in vitro ADME
Procedure: Saturated solutions of API and API HCl were prepared in a mixture of ethanol and dodecanol (95:5) and ethanol and oleic acid (85:15), respectively.
An in-vitro permeation study was performed with the saturated solutions to show permeation of drug through mouse skin. The in-vitro experiments were conducted using a Franz-diffusion cell. The Franz-diffusion cell consists of a donor compartment and an acceptor compartment. • Skin: hairless mouse skin, female, age 6-7 weeks • Stem: Hsd: Athymic Nude-Foxn1^nu • Dermal tissue: dorsal and abdominal with all dermal layers • Breeder: Harlan Laboratories GmbH • Acceptor medium: HEPES buffer pH 7.2 • Volume acceptor: 15 mL • Volume donor: 1.0 mL • Donor solutions: • API HCl in ethanol/dodecanol (95/5) • API HCl in ethanol/oleic acid (85/15) • API in ethanol/dodecanol (95/5) • API in ethanol/oleic acid (85/15) • Permeation area: ˜1.00 cm^2 • Temperature in donor solution: 32±0.5° C. • Sampling times: 3 h, 6 h, 12 h, 18 h, 24 h • Sampling: automatic sampling system #115 • Rinsed volume: ˜7.0 mL • Sample volume: 1.0 mL • Replaced volume: 8.0 mL • Standards: • API HCl in acceptor medium • c(std A)=86.12 μg/mL • c(std B)=8.612 μg/mL • HPLC method: see above • Injection volume: variable between 3-15 μL and adjusted dilution factor

[2] = solubility of API and API HCl in different solvents; type: physicochemical
Procedure: The solubility of API and API HCl in different organic solvents and aqueous solutions is tested by transferring defined volumes of the solvents into micro vials. API and API HCl, respectively, are added until saturation. The solutions are centrifuged and the supernatants analyzed by HPLC (Table 1).

[3] = compatibility of API HCl with different adhesives; type: physicochemical
Procedure: The compatibility of the hydrochloride salt of Tapentadol (API HCl) with different types of adhesives is tested (Table 2).
Duro-Tak 87-900A: non-functional acrylic (no hydroxyl, no carboxyl groups), non-curing
Duro-Tak 87-4287: hydroxyl-functionalized polyacrylate-vinylacetate copolymer, non-curing
Duro-Tak 87-2677: carboxylate-functionalized polyacrylate-vinylacetate copolymer, self-curing
Duro-Tak 87-6911 A: tackified styrene rubber (styrene-block-butadiene-block-styrene), not functionalized
Bio PSA 7-4502: silicone adhesive.

[4] = system: pain; experiment: preliminary clinical trials, pain treating effect (visual analog scale); type: in vivo, human
From the text: Low serum concentrations of Tapentadol suffice to show an effect in individuals that are relatively sensitive and higher serum concentrations of Tapentadol are needed to show an effect in persons that are relatively unsensitive.

[5] = donor ethanol/dodecanol (95:5), time between sampling 6 h, 5th interval (sampling at 24 h)
[6] = donor ethanol/dodecanol (95:5), total dissolution time 3 h
[7] = donor ethanol/dodecanol (95:5), total dissolution time 6 h
[8] = donor ethanol/dodecanol (95:5), total dissolution time 12 h
[9] = donor ethanol/oleic (85:15), time between sampling 3 h, 1st interval (sampling at 3 h)
[10] = donor ethanol/oleic (85:15), time between sampling 3 h, 2nd interval (sampling at 6 h)
[11] = donor ethanol/oleic (85:15), time between sampling 6 h, 3rd interval (sampling at 12 h)
[12] = donor ethanol/oleic (85:15), time between sampling 6 h, 5th interval (sampling at 24 h)
[13] = donor ethanol/oleic (85:15), total dissolution time 3 h
[14] = donor ethanol/oleic (85:15), total dissolution time 6 h
[15] = donor ethanol/oleic (85:15), total dissolution time 12 h
[16] = donor ethanol/oleic (85:15), total dissolution time 18 h
[17] = donor ethanol/oleic (85:15), total dissolution time 24 h
[18] = donor ethanol/oleic (85:15), total time 3 h
[19] = donor ethanol/oleic (85:15), total time 6 h
[20] = donor ethanol/oleic (85:15), total time 12 h
[21] = donor ethanol/oleic (85:15), total time 18 h
[22] = donor ethanol/oleic (85:15), total time 24 h
[23] = donor ethanol/dodecanol (95:5), total dissolution time 18 h
[24] = donor ethanol/dodecanol (95:5), total dissolution time 24 h

CC[C@@H](c1cccc(O)c1)[C@@H](C)CN(C)C [API HCl]
flux [1, 5]: 810.2 μg/cm^2h and 480.5 μg/cm^2h
permeated amount of API or API HCl [1, 6]: 0.8% and 0.2%
permeated amount of API or API HCl [1, 7]: 2.1% and 0.7%
permeated amount of API or API HCl [1, 8]: 8.0% and 2.6%
flux [1, 9]: 55.4 μg/cm^2h and 63.3 μg/cm^2h
flux [1, 10]: 107.6 μg/cm^2h and 142.2 μg/cm^2h
flux [1, 11]: 205.0 μg/cm^2h and 234.1 μg/cm^2h
flux ([1]; donor ethanol/oleic (85:15), time between sampling 6 h, 4th interval (sampling at 18 h)): 142.8 μg/cm^2h and 155.3 μg/cm^2h
flux [1, 12]: 114.7 μg/cm^2h and 115.8 μg/cm^2h
permeated amount of API or API HCl [1, 13]: 0.4% and 0.5%
total permeated amount of API or API HCl [1, 13]: 166.2 μg/cm^2 and 189.9 μg/cm^2
permeated amount of API or API HCl [1, 14]: 1.2% and 1.6%
total permeated amount of API or API HCl [1, 14]: 489.0 μg/cm^2 and 616.7 μg/cm^2
permeated amount of API or API HCl [1, 15]: 4.4% and 5.1%
total permeated amount of API or API HCl [1, 15]: 1718.7 μg/cm^2 and 2021.1 μg/cm^2
permeated amount of API or API HCl [1, 16]: 6.5% and 7.5%
total permeated amount of API or API HCl [1, 16]: 2575.7 μg/cm^2 and 2953.1 μg/cm^2
permeated amount of API or API HCl [1, 17]: 8.3% and 9.3%
total permeated amount of API or API HCl [1, 17]: 3263.7 μg/cm^2 and 3647.7 μg/cm^2
concentration of API or API HCl in sample solution [1, 18]: 10.859 µg/mL and 12.409 µg/mL
concentration of API or API HCl in sample solution [1, 19]: 26.807 µg/mL and 34.414 µg/mL
concentration of API or API HCl in sample solution [1, 20]: 94.462 µg/mL and 109.882 µg/mL
concentration of API or API HCl in sample solution [1, 21]: 105.741 µg/mL and 118.759 µg/mL
concentration of API or API HCl in sample solution [1, 22]: 100.635 µg/mL and 107.927 µg/mL
solubility ([2]; HEPES (pH = 7.2)): 286 mg/mL
solubility ([2]; acetone): 0.92 mg/mL
solubility ([2]; aqueous solutions): excellent solubility
solubility ([2]; ethanol): 33.1 mg/mL
solubility ([2]; ethylacetate): 4.46 mg/mL
solubility ([2]; organic solvents like ethylacetate or acetone, ethanol and n-heptane): hardly soluble
solubility ([2]; water (pH = 5.8)): 298 mg/mL
appearance of solution ([3]; carboxylate-functionalized DT 87-2677): yellowish solutions are clear
appearance of solution ([3]; hydroxyl-functionalized polymer DT 87-4287): opaque solutions which turn slightly yellow after two weeks at room temperature
appearance of solution ([3]; non-functionalized DT 87-900A): clear and colorless
appearance of solution ([3]; silicone adhesive Bio PSA 7-4502, 2 and 5% of API HCl): clear and colorless

CC[C@@H](c1cccc(O)c1)[C@@H](C)CN(C)C [API, 3-[(1R,2R)-3-(dimethylamino)-1-ethyl-2-methylpropyl]phenol]
passes across the skin barrier ([1]; compared with the hydrochloride of Tapentadol): much better
flux ([1]; donor ethanol/dodecanol (95:5), time between sampling 3 h, 1st interval (sampling at 3 h)): 178.1 μg/cm^2h and 263.3 μg/cm^2h
flux ([1]; donor ethanol/dodecanol (95:5), time between sampling 3 h, 2nd interval (sampling at 6 h)): 314.1 μg/cm^2h and 398.7 μg/cm^2h
flux ([1]; donor ethanol/dodecanol (95:5), time between sampling 6 h, 3rd interval (sampling at 12 h)): 789.1 μg/cm^2h and 1056.3 μg/cm^2h
flux ([1]; donor ethanol/dodecanol (95:5), time between sampling 6 h, 4th interval (sampling at 18 h)): 2405.6 μg/cm^2h and 2492.9 μg/cm^2h
flux [1, 5]: 1028.9 μg/cm^2h and 1038.6 μg/cm^2h
permeated amount of API or API HCl [1, 6]: 1.0% and 1.5%
total permeated amount of API or API HCl [1, 6]: 534.4 μg/cm^2 and 789.9 μg/cm^2
permeated amount of API or API HCl [1, 7]: 2.9% and 3.9%
total permeated amount of API or API HCl [1, 7]: 1476.8 μg/cm^2 and 1986.1 μg/cm^2
permeated amount of API or API HCl [1, 8]: 12.1% and 16.2%
total permeated amount of API or API HCl [1, 8]: 6211.5 μg/cm^2 and 8324.0 μg/cm^2
permeated amount of API or API HCl [1, 23]: 40.2% and 45.4%
total permeated amount of API or API HCl [1, 23]: 20644.9 μg/cm^2 and 23281.6 μg/cm^2
permeated amount of API or API HCl [1, 24]: 52.3% and 57.5%
total permeated amount of API or API HCl [1, 24]: 26818.4 μg/cm^2 and 29513.4 μg/cm^2
concentration of API or API HCl in sample solution ([1]; donor ethanol/dodecanol (95:5), total time 3 h): 34.914 µg/mL and 51.610 µg/mL
concentration of API or API HCl in sample solution ([1]; donor ethanol/dodecanol (95:5), total time 6 h): 79.955 µg/mL and 105.327 µg/mL
concentration of API or API HCl in sample solution ([1]; donor ethanol/dodecanol (95:5), total time 12 h): 351.444 µg/mL and 469.548 µg/mL
concentration of API or API HCl in sample solution ([1]; donor ethanol/dodecanol (95:5), total time 18 h): 1128.078 µg/mL and 1224.529 µg/mL
concentration of API or API HCl in sample solution ([1]; donor ethanol/dodecanol (95:5), total time 24 h): 997.460 µg/mL and 1052.063 µg/mL
flux [1, 9]: 273.5 μg/cm^2h and 441.9 μg/cm^2h
flux [1, 10]: 1279.0 μg/cm^2h and 1897.8 μg/cm^2h
flux [1, 11]: 458.8 μg/cm^2h and 247.0 μg/cm^2h
flux [1, 12]: 572.1 μg/cm^2h and 382.5 μg/cm^2h
permeated amount of API or API HCl [1, 13]: 1.7% and 2.7%
total permeated amount of API or API HCl [1, 13]: 820.5 μg/cm^2 and 1325.6 μg/cm^2
permeated amount of API or API HCl [1, 14]: 9.5% and 14.3%
total permeated amount of API or API HCl [1, 14]: 4657.4 μg/cm^2 and 7019.0 μg/cm^2
permeated amount of API or API HCl [1, 15]: 15.1% and 17.3%
total permeated amount of API or API HCl [1, 15]: 7410.5 μg/cm^2 and 8500.8 μg/cm^2
permeated amount of API or API HCl [1, 16]: 17.9% and 26.6%
total permeated amount of API or API HCl [1, 16]: 8799.1 μg/cm^2 and 13084.6 μg/cm^2
permeated amount of API or API HCl [1, 17]: 24.9% and 31.3%
total permeated amount of API or API HCl [1, 17]: 12231.6 μg/cm^2 and 15379.8 μg/cm^2
concentration of API or API HCl in sample solution [1, 18]: 53.604 µg/mL and 86.606 µg/mL
concentration of API or API HCl in sample solution [1, 19]: 278.914 µg/mL and 417.581 µg/mL
concentration of API or API HCl in sample solution [1, 20]: 326.763 µg/mL and 316.739 µg/mL
concentration of API or API HCl in sample solution [1, 21]: 262.813 µg/mL and 466.288 µg/mL
concentration of API or API HCl in sample solution [1, 22]: 362.673 µg/mL and 395.534 µg/mL
solubility ([2]; HEPES (pH = 7.2)): 5.43 mg/mL (≈ 24.5 mM)
solubility ([2]; acetone): 332 mg/mL (≈ 1500 mM)
dissolved amounts of API ([2]; aqueous solutions): ≤ 5.5 mg/mL
solubility ([2]; ethanol): 404 mg/mL (≈ 1830 mM)
solubility ([2]; ethylacetate): 232 mg/mL (≈ 1050 mM)
solubility ([2]; n-heptane, organic solvent or mixture, thermodynamic from solid, n-heptane, read-out: solubility): 1.27 mg/mL (≈ 5.74 mM)
API contents measured ([2]; organic solvents other than n-heptane): higher than 230 mg/mL
solubility ([2]; water (pH = 5.8)): 0.48 mg/mL (≈ 2.17 mM)

CC[C@@H](c1cccc(O)c1)[C@@H](C)CN(C)C [Tapentadol, 3-[(1R,2R)-3-(dimethylamino)-1-ethyl-2-methylpropyl]phenol]
visual analog scale (VAS) in a population mean ([4]; serum concentration about 5 ng·ml^−1): approximately −2 mm
visual analog scale (VAS) in a population mean ([4]; serum concentration about 300 ng·ml^−1): approximately −15 mm
